Test results as given in paper PMC5884652, “New antimicrobial peptide kills drug-resistant pathogens without detectable resistance” (Oncotarget, 2018).
Like-named read-outs stand apart in the source and are kept apart here. Ends that are not written are not given here.

Key:
[1] = tested on: Bacillus subtilis KCTC 1998; assay type: cell-based
Excerpt: (§1) The method for peptide synthesis has been described in detail previously. E. coli ATCC 25922 (LB media), P. aeruginosa ATCC 15692 (NB+0.5% NaCl media), Listeria monocytogenes ATCC 3710 (LB media), Staphylococcus epidermidis ATCC 12228 (LB media), and S. aureus ATCC 29213 (TSB media) were obtained from the American Type Culture Collection (Manassas, VA, USA). Bacillus subtilis KCTC 1998 (LB media), Salmonella typhimurium KCTC 1926 (NB media), and Proteus vulgaris KCTC 2433 (NB media) were obtained from the Korean Collection for Type Cultures (Jeollabuk-do, Korea). E. coli CCARM 1238 was received from the Culture Collection of Antibiotic Resistant Microbes at Seoul Women’s University, Korea. Drug-resistant P. aeruginosa 3543, 3904, 3547, and 4007 and S. aureus 3126, 0027, 5157, 1635, 4761, 5159, 3359, 2122, 1630, 1870, 3511, 5156, and 3518 were resistant strains isolated from patients with otitis media in a Chonnam National University’s hospital.
(§2) The antibacterial activities of AMPs (melittin, clavaspirin, and its analogs) and conventional antibiotic drugs (erythromycin, gentamicin, ampicillin, and piperacidin) were determined using microdilution assays. Bacterial cells were cultured at 37° C in appropriate culture media at pH 5.5 or pH 7.4 until collection during the mid-log phase and suspended in 10 mM sodium phosphate buffer (pH 5.5 or pH 7.4) supplemented with 10% culture medium. Thereafter, 2× serial dilutions of each peptide (0.25–128 μM) or antibiotic (0.25–256 μM) were added to sterile 96-well plates, and aliquots of cell suspension (5 × 10^5 colony forming units (cfu)/mL) were seeded into each well. The samples were then incubated at 37° C for 24 h. At the end of the incubation, the minimum inhibitory concentrations (MICs) of the peptides were determined using a VERSA Max microplate reader (Molecular Devices Co., Sunnyvale, CA, USA) at a wavelength of 600 nm. […] MIC values were calculated as the mean of 3 independent experiments conducted in triplicate.

[2] = tested on: Staphylococcus epidermidis ATCC 12228; assay type: cell-based
Excerpt: as §1, §2

[3] = tested on: Listeria monocytogenes ATCC 3710; assay type: cell-based
Excerpt: as §1, §2

[4] = Aggregation assay (light scattering); assay type: physicochemical; conditions: 10 mM sodium phosphate buffer; for Self-aggregation: light scattering ex 400 nm / em 400 nm, 12 h, 37° C, mean of three experiments
Procedure: Light scattering assays were performed with clavaspirin and its analogue peptides using a Perkin-Elmer LS55 fluorometer. Peptides were dissolved in 10 mM sodium phosphate buffer (pH 5.5 or pH 7.4) and incubated for 12 h at 37° C. Light scattering was excited at 400 nm and the emission was scanned at 400 nm.

P. aeruginosa ATCC 15692 = assay type: cell-based, Pseudomonas aeruginosa
Excerpt: as §1, with “E. coli ATCC 25922 (LB media), P. aeruginosa ATCC 15692 (NB+0.5% NaCl media), Listeria monocytogenes ATCC 3710 (LB media), Staphylococcus epidermidis ATCC 12228 (LB media), and S. aureus ATCC 29213 (TSB media) were obtained from the American Type Culture Collection (Manassas, VA, USA).” left out
as §2, with “Bacterial cells were cultured at 37° C in appropriate culture media at pH 5.5 or pH 7.4 until collection during the mid-log phase and suspended in 10 mM sodium phosphate buffer (pH 5.5 or pH 7.4) supplemented with 10% culture medium.” left out

[5] = C18 RP-HPLC retention time as measure of hydrophobicity; assay type: physicochemical; conditions: chromatographic, linear gradient of 10–60 acetonitrile containing 0.7% trifluoroacetic acid for 50 min, mean, used as measure of hydrophobicity
Procedure: Supplementary Table 1: Sequence, molecular mass, retention time, and hemolytic and cytotoxic activities of clavaspirin and its analogues
Designation Sequences Molecular Retention HC /HC a EC /EC b
The meanretention time was analyzed using C18 reversed phase-high-performance liquid chromatography (RP-HPLC).
Samples were run using a linear gradient of 10–60 acetonitrile, containing 0.7% trifluoroacetic acid for 50 min. aHemolytic activity was determined in PBS buffer containing 8% hRBCs. bEffective concentration in HaCaT cells was determined in DMEM buffer containing 10% FBS and 1% PS.

E. coli CCARM1238 = experiment: microbe, parasite or virus in culture; assay type: cell-based, Escherichia coli; conditions: pH 7.4 (II); 10 mM sodium phosphate buffer, 10% LB; 37° C, 24 h; mean of 3 experiments
Excerpt: as §1, §2

E. coli [6] = experiment: SYTOX-Green uptake; assay type: cell-based; conditions: E. coli 2 × 10^7 cfu/mL, 1 μM SYTOX-Green, 10 mM sodium phosphate buffer, pH 5.5 and pH 7.4
E. coli [7] = experiment: Time-kill kinetics; assay type: cell-based; conditions: pH 5.5 and pH 7.4, peptides at their respective MICs
Procedure: E. coli were grown overnight in LB broth (pH 5.5 or pH 7.4) and diluted to an OD600 of 0.05. CSP-4 was then added so that the final concentration was either the MIC or 1/2 MIC. E. coli cells were then sampled at 1-min intervals for the first 10 min and at 10-min intervals thereafter for 2 h. The cultures were then diluted 50-fold in PBS buffer and plated on LB agar. Colonies were counted after 24 h.

[8] = pH 5.5 (I), 10 mM sodium phosphate buffer, 10% LB, 37° C, 24 h, mean of 3 experiments
[9] = pH 7.4 (II), 10 mM sodium phosphate buffer, 10% LB, 37° C, 24 h, mean of 3 experiments

Q: With FKRFIGSVKHGIGHLVHHIGVAL-NH2 [CSP-3] as the substance, how does the “MIC, B. subtilis” value ([1]; KCTC 1998, 24 h, pH 5.5) read?
A: Its value is 8 µM.

Q: And the “MIC, B. subtilis” value ([1]; KCTC 1998, 24 h, pH 7.4)?
A: Its value is 16 µM.

Q: What about the “MIC, S. epidermidis” value ([2]; ATCC 12228, 24 h, pH 5.5) of the same substance?
A: The value was 4 µM.

Q: And the “MIC, S. epidermidis” value ([2]; ATCC 12228, 24 h, pH 7.4)?
A: The value was 8 µM.

Q: What about the “MIC, L. monocytogenes” value ([3]; ATCC 3710, 24 h, pH 5.5) of the same substance?
A: The value was 16 µM.

Q: And the “MIC, L. monocytogenes” value ([3]; ATCC 3710, 24 h, pH 7.4)?
A: Its value is 8 µM.

Q: And the Self-aggregation ([4]; pH 7.4)?
A: Its Self-aggregation is “aggregation increased”.

Q: What about the “MIC, P. aeruginosa” value (P. aeruginosa ATCC 15692; ATCC 15692, 24 h, pH 5.5) of the same substance?
A: The value was 32 µM.

Q: What about the “MIC, P. aeruginosa” value (P. aeruginosa ATCC 15692; ATCC 15692, 24 h, pH 7.4) of the same substance?
A: The value was 32 µM.

Q: And the Retention time [5]?
A: The Retention time was 21.4 min.

Q: With FLRFIGSVKHGKGHLVHHIGVAL-NH2 [CSP-4] as the substance, how does the “MIC, B. subtilis” value [1, 8] read?
A: Its value is 4 µM.

Q: And the “MIC, B. subtilis” value [1, 9]?
A: Its value is 4 µM.

Q: And the “MIC, S. epidermidis” value [2, 8]?
A: Its value is 4 µM.

Q: And the “MIC, S. epidermidis” value [2, 9]?
A: The value was 8 µM.

Q: What about the “MIC, L. monocytogenes” value [3, 8] of the same substance?
A: The value was 4 µM.

Q: What about the “MIC, L. monocytogenes” value [3, 9] of the same substance?
A: Its value is 4 µM.

Q: What about the MIC (E. coli CCARM1238) of the same substance?
A: The MIC was 2 µM.

Q: What about the Self-aggregation ([4]; pH 5.5) of the same substance?
A: Its Self-aggregation is “very little self-aggregation”.

Q: And the “Effect of varying the pH on aggregation” value ([4]; pH 5.5 vs pH 7.4, light scattering)?
A: Its value is “not affected”.

Q: What about the Self-aggregation ([4]; pH 7.4) of the same substance?
A: Its Self-aggregation is “very little self-aggregation”.

Q: What about the “Membrane disruption (SYTOX-Green fluorescence)” value (E. coli [6]) of the same substance?
A: The value was “dose-dependent increase in fluorescence intensity”.

Q: And the “MIC, P. aeruginosa” value (P. aeruginosa ATCC 15692; [8])?
A: Its value is 32 µM.

Q: What about the “MIC, P. aeruginosa” value (P. aeruginosa ATCC 15692; [9]) of the same substance?
A: The value was 32 µM.

Q: What about the Killing kinetics (E. coli [7]) of the same substance?
A: The Killing kinetics was “reduced bacterial growth faster than CSP”.

Q: What about the Retention time [5] of the same substance?
A: Its Retention time is 20.2 min.
